Reference: PMC4192606, “Agrobacterium Uses a Unique Ligand-Binding Mode for Trapping Opines and Acquiring A Competitive Advantage in the Niche Construction on Plant Host” (PLoS Pathogens, 2014)
“And” between values parts separate entries of the source, which are not always exact repeats. Equal values may be shown once.

Assays:
NocT [1] = molecular target: T1, NocT (Agrobacterium fabrum, UniProt P35120); assay: KD measurement by isothermal titration calorimetry (ITC), wild-type NocT; type: binding, Agrobacterium tumefaciens C58
T1 construct: The X-ray structures of the mature free-liganded NocT; made in house; host or cells: E. coli Rosetta pLysS
Description: ITC experiments were performed with an ITC200 isothermal titration calorimeter from MicroCal Llc (Northampton, MA). The experiments were carried out at 20°C. Protein concentration in the microcalorimeter cell (0.2 ml) varied from 100 to 150 µM. Nineteen injections of 2 µl of the ligand solution concentration from 1.5 to 1.6 mM were performed at intervals of 180 s while stirring at 1000 rpm. The experimental data were fitted to theoretical titration curves with software supplied by MicroCal (ORIGIN). This software uses the relationship between the heat generated by each injection and ΔH (enthalpy change in Kcal.mol^−1), Ka (the association binding constant in M^−1), n (the number of binding sites), total protein concentration and free and total ligand concentrations.

NocT [2] = molecular target: T1, NocT; assay: KD measurement by intrinsic protein fluorescence titration, wild-type NocT; type: binding, Agrobacterium tumefaciens C58; details: 25°C, 25 mM Tris-HCl pH 8.0, 150 mM NaCl, 5 µM protein, triplicates; for Kd: read-out: KD (fluorescence titration), NocT wt
Description: (§1) Ligand-NocT interaction was monitored by autofluorescence by exciting the protein at a wavelength of 295 nm and monitoring the quenching of fluorescence emission of tryptophan residues at 340 nm. All experiments were performed at 25°C in 25 mM Tris-HCl pH 8.0 and 150 mM NaCl with a fixed amount of proteins (5 µM) and increasing concentrations of ligand using a SpectraMax M5 microplate reader (Molecular Devices). […] Fluorescence measurements were done in triplicates. The data were analysed using Origin 7 software and fitted to the equation f = ΔFluorescencemax * abs(x)/(KD+abs(x)).

NocT-M117N = molecular target: T2, NocT-M117N (Agrobacterium fabrum, UniProt P35120, M117N); assay: KD measurement by fluorescence titration, NocT-M117N mutant; type: binding, Agrobacterium tumefaciens C58
T2 construct: The X-ray structures of the mature free-liganded NocT; made in house; host or cells: E. coli Rosetta pLysS
From the text: (§2) Using 5′-[…] and 5′-[…] primers, nocT gene of A. tumefaciens C58 was amplified and then cloned into pET-9aSN1 expression vector (a gift from S. Chéruel, IBBMC, University Paris Sud, Orsay, France). The pET-9aSN1-nocT was used as template to generate directed mutations with QuikChange II XL directed mutagenesis kit (Stratagene). For mutations Met117 to Ser (M117S) and Asn (M117N), the synthetic forward primers 5′–[…] and 5′-[…] and their reverse complemented primers were designed. The nucleotide sequence of all alleles was confirmed by DNA-sequence analysis (GATC, France).
as §1

[3] = tested on: A. tumefaciens C58 ocd mutant; assay: Growth assay on opine as sole carbon and nitrogen source, ocd mutant; type: cell-based, Agrobacterium tumefaciens C58; details: opine as sole source of carbon and nitrogen at 3 mM, AB medium, OD600 after 24 hours
From the text: (§3) The A. tumefaciens C58 derivatives carrying pTi-accR::Gm and pTi::Gm (used as C58-control in plant assay) in which the genes accR (atu6138) and atu6147 were disrupted by inserting a gentamicin resistance cassette were already constructed. The A. tumefaciens C58 derivatives harbouring the Ti-plasmid pTi-nos::Km, pTi-ocd::Gm, pTi-nocT::Gm were obtained by insertion of a gentamicin (Gm) or kanamycin (Km) resistance cassette into the genes nos ( = atu6015), ocd ( = atu6016), and nocT ( = atu6027) as described previously.
(§4) A. tumefaciens was cultivated at 30°C in Agrobacterium broth (AB) minimal medium supplemented with ammonium chloride (1 g/L) and mannitol (2 g/L) except when an alternative source of carbon and nitrogen is indicated, or in Luria-Bertani modified medium (LBm; NaCl 5 g/L). In growth assay nopaline and pyronopaline were added as a sole carbon and nitrogen source at 3 mM (ca 1 g/L). The antibiotics gentamycin and kanamycin were added at 25 µg/mL and 50 µg/mL, respectively.

NocT-M117S = molecular target: T3, NocT-M117S (Agrobacterium fabrum, UniProt P35120, M117S); assay: KD measurement by fluorescence titration, NocT-M117S mutant; type: binding, Agrobacterium tumefaciens C58
T3 construct: The X-ray structures of the mature free-liganded NocT; made in house; host or cells: E. coli Rosetta pLysS
From the text: as §2, §1

[4] = tested on: A. tumefaciens C58 nocT mutant; assay: Growth assay on opine as sole carbon and nitrogen source, nocT mutant; type: cell-based, Agrobacterium tumefaciens C58; details: opine as sole source of carbon and nitrogen at 3 mM, AB medium, OD600 after 24 hours
From the text: as §3, §4

[5] = 20°C, protein 100 to 150 µM, triplicates

T1 sequence (P35120 26-283): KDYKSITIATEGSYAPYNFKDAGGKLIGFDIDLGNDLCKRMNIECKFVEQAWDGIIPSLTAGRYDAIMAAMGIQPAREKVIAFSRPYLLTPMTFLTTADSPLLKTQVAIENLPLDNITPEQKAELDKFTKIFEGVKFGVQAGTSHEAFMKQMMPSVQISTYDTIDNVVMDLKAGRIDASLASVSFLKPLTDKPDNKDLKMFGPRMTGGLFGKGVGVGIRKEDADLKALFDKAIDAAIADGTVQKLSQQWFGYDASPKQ
T2 sequence (P35120 26-283 M117N): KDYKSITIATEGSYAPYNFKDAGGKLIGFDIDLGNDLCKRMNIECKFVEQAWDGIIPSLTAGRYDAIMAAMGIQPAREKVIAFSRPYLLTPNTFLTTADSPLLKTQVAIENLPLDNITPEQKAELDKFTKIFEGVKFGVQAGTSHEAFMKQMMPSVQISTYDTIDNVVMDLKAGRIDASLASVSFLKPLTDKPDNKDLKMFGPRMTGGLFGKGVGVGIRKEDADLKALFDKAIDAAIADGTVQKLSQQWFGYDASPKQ
T3 sequence (P35120 26-283 M117S): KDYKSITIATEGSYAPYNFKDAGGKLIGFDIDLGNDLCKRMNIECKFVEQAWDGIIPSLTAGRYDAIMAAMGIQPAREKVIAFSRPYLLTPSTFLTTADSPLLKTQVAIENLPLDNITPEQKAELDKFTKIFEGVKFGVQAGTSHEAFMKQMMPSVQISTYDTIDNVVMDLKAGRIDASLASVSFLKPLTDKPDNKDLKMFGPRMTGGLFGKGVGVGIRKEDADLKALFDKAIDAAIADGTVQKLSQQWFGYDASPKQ

Row | Structure (SMILES) | KD (ITC), NocT wt (NocT [1]; [5]) | growth of ocd mutant [3] | growth of nocT mutant [4] | Kd (NocT [2]) | other results
1 | N=C(N)NCCC[C@H](N)C(=O)O [arginine, reference compound] | no interaction |  |  |  | KD (fluorescence titration), NocT wt (NocT [2]): no interaction
2 | N=C(N)NCCCC(C(=O)O)N1C(=O)CCC1C(=O)O (centres unmarked) [pyronopaline] |  | strongly impaired | could not grow | 570 nM and 600 nM | Kd (NocT-M117N): 39900 ± 7000 nM; KD fold higher than that of the WT protein, NocT-M117N (NocT-M117N; mutant vs WT NocT): 76 fold; TΔS of binding (ITC) (NocT [1]; 20°C): 12.6 kcal/mol; Kd (NocT [1]; 20°C, protein 100 to 150 µM, triplicates, read-out: KD (ITC), NocT wt): 580 ± 50 nM; enthalpy of binding (ITC) (NocT [1]; positive enthalpy): 2.1 kcal/mol; Kd (NocT-M117S): 37800 ± 9000 nM; KD fold higher than that of the WT protein, NocT-M117S (NocT-M117S; mutant vs WT NocT): 76 fold
3 | N[C@@H](Cc1c[nH]cn1)C(=O)O [histidine, reference compound] | no interaction |  |  |  | 
4 | N=C(N)NCCCC(NC(CCC(=O)O)C(=O)O)C(=O)O (centres unmarked) [nopaline] |  | strongly impaired | could not grow | 3700 nM | 
5 | NCCC[C@H](N)C(=O)O [ornithine, reference compound] | no interaction |  |  |  | 
